Data as given in PMC3132655, “Synthesis and In Vitro Evaluation of Novel Nortropane Derivatives as Potential Radiotracers for Muscarinic M2 Receptors” (International Journal of Molecular Imaging, 2011).
“And” between values parts separate entries of the source, which are not always exact repeats. Equal values may be shown once. Read-outs that look alike come from different tables or passages of the source.

Tests used:
[1] = target: T1, recombinant human muscarinic M2 receptor (Homo sapiens, UniProt P08172); assay: competitive binding against [3H]NMS, CHO cell membranes, M2; details: for affinity for M2 (in words): [3H]NMS competition
T1 construct: purchased Perkin Elmer, Waltham, USA; host or cells: CHO cells (membrane suspensions)
T1 sequence (P08172 1-466): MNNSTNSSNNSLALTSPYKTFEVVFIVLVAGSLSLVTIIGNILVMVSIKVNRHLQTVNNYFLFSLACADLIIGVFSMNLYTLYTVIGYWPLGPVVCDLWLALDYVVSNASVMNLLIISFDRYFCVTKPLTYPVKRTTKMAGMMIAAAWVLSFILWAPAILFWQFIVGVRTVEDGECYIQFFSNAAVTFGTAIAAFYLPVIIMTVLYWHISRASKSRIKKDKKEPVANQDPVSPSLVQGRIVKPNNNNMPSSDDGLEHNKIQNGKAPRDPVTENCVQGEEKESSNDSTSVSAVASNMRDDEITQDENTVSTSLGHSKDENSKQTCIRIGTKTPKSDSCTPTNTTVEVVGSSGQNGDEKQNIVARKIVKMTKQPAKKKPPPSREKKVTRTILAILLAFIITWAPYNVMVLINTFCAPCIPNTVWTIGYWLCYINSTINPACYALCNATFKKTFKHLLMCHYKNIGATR
Experimental: (§1) Assays were performed on membrane suspensions from CHO cells expressing either the recombinant human muscarinic M1, M2, or the M3 receptor subtype (Perkin Elmer, Waltham, USA).
(§2) In the competitive binding assays, incubation buffer contained 50 mM TRIS-HCl, 10 mM MgCl2, and 1 mM EDTA (pH 7.4 at 4°C). The assays were incubated during 60 min (M1 or M2 receptor subtypes) or 120 min (M3 receptor subtypes) at 27°C. Nonspecific binding was determined using atropine as a competitor in a concentration of 1 μM.
(§3) In the first series of competitive binding assays, the 6β-4′-iodobenzyl ether (5b) and the 6β-4′-iodobenzoate ester (5c) of 6β-nortropinol, as well as the lead compound 6β-acetoxynortropane (5a), were tested. Protein concentrations for undiluted receptor subtype suspensions were 1.2 mg/mL (M1), 4.3 mg/mL (M2), and 2.0 mg/mL (M3). […] Final competitor concentrations ranged from 1.0 · 10^−10 M to 1.0 · 10^−4 M. After incubation, the reaction was rapidly terminated by vacuum filtration over GF/C glass fiber filters, presoaked in 0.3% polyethylenimine (Sigma-Aldrich, Munich, Germany), and washed 5 times with 1 mL of ice-cold buffer. Filters were placed in vials with 10 mL of scintillation fluid (Ultima Gold, Perkin Elmer, Waltham, USA) and counted in a liquid scintillation counter (Tri-Carb 2900 TR Liquid Scintillation Analyzer, Packard. Software version: 3100).
(§4) In the second series of competitive binding assays, derivative 10a and 10b and the lead compound 6β-acetoxynortropane (5a) were tested. In this series, the protein concentrations for undiluted receptor subtype suspensions were 0.6 mg/mL (M1), 7.5 mg/mL (M2), and 1.5 mg/mL (M3). […] Final competitor concentrations ranged from 1.0 · 10^−10 M to 1.0 · 10^−5 M. After incubation, the assays were filtrated over UniFilter 96 GF/C filter plates, presoaked in 0.3% polyethylenimine (Sigma-Aldrich, Munich, Germany), and washed 9 times with 200 μL of ice-cold buffer. 30 μL of scintillation fluid (MicroScint, Perkin Elmer, Waltham, USA) was added, and the filter plates were counted in a liquid scintillation counter (TopCount 5.0 Liquid Scintillation Analyzer, Perkin Elmer, Waltham, USA).

[2] = target: T2, recombinant human muscarinic M1 receptor (Homo sapiens, UniProt P11229); assay: competitive binding against [3H]NMS, CHO cell membranes, M1; details: for selectivity ratio for M2 over M1: ratio of Ki, [3H]NMS; for affinity for M1 (in words): [3H]NMS competition
T2 construct: purchased Perkin Elmer, Waltham, USA; host or cells: CHO cells (membrane suspensions)
Experimental: as §1, §2, §3, §4

[3] = target: T3, recombinant human muscarinic M3 receptor (Homo sapiens, UniProt P20309); assay: competitive binding against [3H]NMS, CHO cell membranes, M3; details: for selectivity ratio for M2 over M3: ratio of Ki, [3H]NMS; for affinity for M3 (in words): [3H]NMS competition
T3 construct: purchased Perkin Elmer, Waltham, USA; host or cells: CHO cells (membrane suspensions)
Experimental: as §1, §2, §3, §4

muscarinic M2 receptor = details: [3H]QNB as reference tracer; ref 27 (Pei et al.); cited from earlier work
[4] = first series, n = 3, [3H]NMS 0.2 nM, read-out: Ki for M2

T3 sequence (P20309 whole entry): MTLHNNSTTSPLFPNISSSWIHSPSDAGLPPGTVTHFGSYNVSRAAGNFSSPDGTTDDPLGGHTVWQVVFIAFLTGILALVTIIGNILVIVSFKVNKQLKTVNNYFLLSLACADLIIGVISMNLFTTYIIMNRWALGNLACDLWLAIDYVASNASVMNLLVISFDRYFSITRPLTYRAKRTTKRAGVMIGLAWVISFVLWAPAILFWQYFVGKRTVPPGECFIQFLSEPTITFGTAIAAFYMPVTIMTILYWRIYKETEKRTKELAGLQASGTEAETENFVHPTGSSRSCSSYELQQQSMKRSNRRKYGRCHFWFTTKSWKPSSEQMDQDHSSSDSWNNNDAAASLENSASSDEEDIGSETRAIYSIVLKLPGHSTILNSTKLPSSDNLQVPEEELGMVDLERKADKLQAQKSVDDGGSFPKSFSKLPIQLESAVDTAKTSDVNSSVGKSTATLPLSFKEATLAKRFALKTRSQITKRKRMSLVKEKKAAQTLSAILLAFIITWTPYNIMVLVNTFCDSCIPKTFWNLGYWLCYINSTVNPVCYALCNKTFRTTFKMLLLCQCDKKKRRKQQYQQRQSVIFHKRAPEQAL
T2 sequence (P11229 whole entry): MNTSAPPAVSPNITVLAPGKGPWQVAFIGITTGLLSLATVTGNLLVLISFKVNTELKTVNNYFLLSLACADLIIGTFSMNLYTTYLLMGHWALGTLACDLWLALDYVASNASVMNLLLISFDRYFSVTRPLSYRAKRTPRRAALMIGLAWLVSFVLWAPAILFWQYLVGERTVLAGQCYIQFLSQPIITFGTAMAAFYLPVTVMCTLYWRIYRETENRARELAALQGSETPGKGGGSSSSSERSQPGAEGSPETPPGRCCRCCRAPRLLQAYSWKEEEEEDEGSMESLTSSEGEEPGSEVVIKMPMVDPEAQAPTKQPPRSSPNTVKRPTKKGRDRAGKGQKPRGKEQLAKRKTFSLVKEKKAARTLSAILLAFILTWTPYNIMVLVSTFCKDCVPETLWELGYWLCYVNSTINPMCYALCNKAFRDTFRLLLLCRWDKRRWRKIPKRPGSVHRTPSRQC

Question: What does the source list for `CC(=O)OC1CC2CCCC1N2` (stereo not drawn) [5a, 6β-acetoxynortropane, reference compound]?
Answer: Ki ([1]; Ki for M2, first series/experiment, n = 3, [3H]NMS 0.2 nM, average ± SD): 88.1 nM and 88 nM; Ki ([1]; Ki for M2, second series/experiment, n = 4, [3H]NMS 0.13 nM, average ± SD): 71.6 nM and 71 nM; Ki ([1]; Ki to M2 receptors, range over both experiments (abstract)): 70 to 90 nM; selectivity ratio to the M1 ([2]; abstract): 65 fold; selectivity ratio for M2 over M1 [2]: approximately 65; selectivity ratio to the M3 ([3]; abstract): 70 fold; selectivity ratio for M2 over M3 [3]: ~70; Ki (muscarinic M2 receptor): 2.6 nM

Question: With `Ic1ccc(COC2CC3CCCC2N3)cc1` (stereo not drawn) [5b, 6β-4′-iodobenzyl ether of 6β-nortropinol] as the molecule, how does the “affinity for M2 (in words)” value [1] read?
Answer: The value was “weak affinity”.

Question: And the Ki [1, 4]?
Answer: Its Ki is 3000 nM.

Question: And the “affinity for M1 (in words)” value [2]?
Answer: The value was “weak affinity”.

Question: And the “selectivity ratio for M2 over M1” value [2]?
Answer: The value was 0.1.

Question: What about the “affinity for M3 (in words)” value [3] of the same molecule?
Answer: The value was “weak affinity”.

Question: What about the “selectivity ratio for M2 over M3” value [3] of the same molecule?
Answer: Its value is 0.2.

Question: For `O=C(OC1CC2CCCC1N2)c1ccc(I)cc1` (stereo not drawn) [5c, 6β-4′-iodobenzoate ester of 6β-nortropinol], which “affinity for M2 (in words)” value [1] is on record?
Answer: The value was “weak affinity”.

Question: What about the Ki [1, 4] of the same molecule?
Answer: The Ki was 6800 nM.

Question: And the “affinity for M1 (in words)” value [2]?
Answer: The value was “weak affinity”.

Question: What about the “selectivity ratio for M2 over M1” value [2] of the same molecule?
Answer: The value was 0.6.

Question: What about the “affinity for M3 (in words)” value [3] of the same molecule?
Answer: Its value is “weak affinity”.

Question: What about the “selectivity ratio for M2 over M3” value [3] of the same molecule?
Answer: The value was 2.0.
